We go through 2 molecules from patent US11866458B2, “Panaxadiol glycoside derivative and preparation method and application thereof” (SUZHOU JI ER BIOLOGICAL MEDICINE CO., LTD., priority 2018, dated 2024).

For data set [1], the system named is ICR mice. Kind of data set: Blood glucose of caudal vein after 6 days of intragastric administration. The conditions noted are these: 225 mg/kg, intragastric, 6 days.
Description: The mice were intragastric administration for 6 consecutive days, fasting was started at about 8:00 in the morning on the sixth day, and blood glucose in caudal vein was measured at about 4:00 in the next day.
For data set [2], the system named is mouse asthma model induced by OVA. Kind of data set: Asthma induced by ovalbumin in Balb/c mice: IgE level in serum by ELISA. The data set is classed as in vivo. The conditions noted are these: oral.
Data set [3] relates to ICR mice. Description: Blood routine test after 6 days of intragastric administration. Particulars: 225 mg/kg, intragastric, 6 days.
Description: Mice were intragastric administration for 6 consecutive days, and sufficient blood samples were taken for blood routine test 1 hour after the last dose.
The test system of data set [4] is inflammatory cells in bronchoalveolar lavage fluid of mice. Description: Determination of inflammatory cells in bronchoalveolar lavage fluid of mice (OVA asthma model). On the set-up: unit not given here. The data set is classed as in vivo, BALB/C mice. Particulars: oral. How it is done: 144 6-week-old BALB/C mice (18-20 g) were divided into 24 groups: control group, placebo group, dexamethasone group (3 mg/kg) and the drug groups. There were 6 in each group. The control group was given normal saline without any treatment. The other groups were sensitized by intraperitoneal injection of OVA 20 μg and aluminum hydroxide 200 μL PBC (2 mg, prepared into emulsion). […] On day 21, 22 and 23, the therapeutic agent (i.e. 3 mg/kg dexamethasone in the positive control group and oral administration in the drug group) was given orally. From day 17 to 23, PBS was given to the control group and placebo group respectively, PBS (without OVA) was given to the control group. On day 0 and day 14, the normal saline was nebulized for 30 minutes to remove the aluminum hydroxide on day 21, 22 and 23 See in Table 2.

For data set [5], the system named is COPD rats induced by smoke exposure. Kind of data set: COPD induced by smoke exposure in rats: lung function FEV0.2/FVC. The data set is classed as in vivo, Wistar rats. Particulars: for FEV2/FVC % (FEV0.2/FVC %, forced expiratory index within 200 ms): 180 days.
The conditions of data set [6]: after inhalation; cited from earlier work.

With `CC(C)=CCC[C@](C)(O[C@@H]1O[C@H](CO)[C@@H](O)[C@H](O)[C@H]1O)[C@H]1CC[C@]2(C)[C@@H]1[C@H](O)C[C@@H]1[C@@]3(C)CC[C@H](O)C(C)(C)[C@@H]3CC[C@]12C` [CK, ginsenoside compound K, reference compound], the “blood glucose related changes” value in the data set on ICR mice [1] is recorded as “no blood glucose related changes”. Further, the Blood glucose in the data set on ICR mice [1] (fasted, caudal vein) came to 3.18 ± 0.28 mmol/L. Further, in data set [2] (Table 1-1 (1st time), 20 mg/kg, 24 hours after last OVA stimulation), the “Concentration of IgE in serum” value is 1701.85 ± 284.66 ng/mL. In addition, the “Concentration of IgE in serum” value in data set [2] (Table 1-2 (2nd time), 15 mg/kg) was determined as 1921.25 ± 160.12 ng/mL. For the same molecule, the “Concentration of IgE in serum” value in data set [2] (Table 1-2 (2nd time), 30 mg/kg) came to 1676.69 ± 159.13 ng/mL. For the same molecule, in data set [2] (Table 1-2 (2nd time), 60 mg/kg), the “Concentration of IgE in serum” value stood at 1501.85 ± 110.68 ng/mL. In the data set with ICR mice [3], this molecule came in with a Ba % of 0.01 ± 0.02%, an Eo % of 0.75 ± 0.71%, a Ly % of 62.54 ± 30.29% and a Mo % of 6.01 ± 8.91%. Besides, in the data set with ICR mice [3], the Ne % is on record as 31.39 ± 2.72% and the “hematological related changes” value was “no hematological related changes”. In the data set on ICR mice [3] (1 hour after last dose), the WBC was 4.96 ± 2.14 10^2/mm^3. In data set [4] (2 mg/kg), the “Acidic cells in bronchoalveolar lavage fluid” value (from here on “Acidic cells”) worked out at 32.47 ± 20.33, the “Neutral cells in bronchoalveolar lavage fluid” value (“Neutral cells” for short) is reported as 15.24 ± 7.94 and the “lymphocyte in bronchoalveolar lavage fluid” value (from here on “lymphocyte”) is given as 16.81 ± 9.88. Besides, in data set [4] (20 mg/kg), the “Acidic cells” value was determined as 16.39 ± 9.67, the “Neutral cells” value was 8.78 ± 5.33, the “Total inflammatory cells in bronchoalveolar lavage fluid” value was 24.87 ± 20.58 and the “lymphocyte” value worked out at 10.15 ± 7.34. In data set [4] (200 mg/kg), the “Acidic cells” value is reported as 13.12 ± 7.38, the “Neutral cells” value worked out at 4.32 ± 3.16, the “Total inflammatory cells in bronchoalveolar lavage fluid” value is listed as 22.38 ± 12.69 and the “lymphocyte” value is 7.42 ± 4.53. Also, in data set [5] (20 mg/kg oral), the “FEV2/FVC % (FEV0.2/FVC %, forced expiratory index within 200 ms)” value was determined as 61.29 ± 11.76%. In addition, the “FEV2/FVC % (FEV0.2/FVC %, forced expiratory index within 200 ms)” value in data set [5] (40 mg/kg oral) stood at 70.89 ± 10.56 %. The “FEV2/FVC % (FEV0.2/FVC %, forced expiratory index within 200 ms)” value in data set [5] (80 mg/kg oral) was 80.24 ± 13.73 %. The “effect in COPD rats compared with inhaled budesonide” value in data set [5] (high dose group, oral) is reported as “superior to budesonide”.

On to `CC(C)C(=O)OCC(=O)[C@@]12O[C@H](C3CCCCC3)O[C@@H]1C[C@H]1[C@@H]3CCC4=CC(=O)C=C[C@]4(C)[C@H]3[C@@H](O)C[C@@]12C` [ciclesonide], for which the bioavailability in vivo entry in data set [6] was “less than 1%”.
